Assay results as given in patent publication US20250387324A1, “IN SITU FORMING IMPLANTS AND MICROPARTICLES FOR INTRAARTICULAR DRUG DELIVERY” (Mississippi State University, priority 2024, published 2025).

Experiments:
[1] = Solvent screening for dissolving PCG; format: physicochemical
Procedure: The present inventor has developed a suitable in situ forming implant for sustained delivery of PCG. Polycarbonate, poly(lactic acid), and poly(lactide-co-glycolide) (PLGA) were dissolved in various solvents and screened for combinations that could also dissolve punicalagin and release it gradually from an implant formed in situ. PLGA emerged as the polymer that offered the best opportunity for the tuning of PCG release kinetics. Systems composed of PLGA and PCG dissolved in N-methyl-2-pyrrolidone (NMP) and/or benzyl alcohol (BA) consistently formed solid or hydrogel implants. […] Thus, one aspect of this invention is the characterization of PLGA in situ forming implants (originating from solutions containing NMP, BA, and BB) with respect to PCG stability and release kinetics.

[2] = test system: prostaglandin E2 (PGE2) production by human THP-1 macrophages; assay: LPS-stimulated PGE2 production by THP-1 macrophages (LC-MS/MS); format: cell-based
From the text: (§1) In addition to the inhibition of released collagenases, PCG is capable of suppressing the biosynthesis of inflammatory mediators that play important roles in the pathogenesis of OA. Such chondroprotective properties were investigated using THP-1 monocytes that had been differentiated into macrophages. THP-1 is a human leukemia monocytic cell line. THP-1 monocytes were expanded by suspension culture in RPMI 1640 medium supplemented with 10% FBS and 1% antibiotic-antimycotic solution. They were differentiated into macrophages by adding PMA to a final concentration of 20 nM and transferring them to monolayer culture for 72 h.^13 Inflammation was then induced by treatment with 1 μg/ml LPS. PCG was first dissolved at 5 mM in complete culture medium. One hour after LPS stimulation, cells were treated with PCG at final concentrations of 4, 20, 100, and 500 μM. Culture supernatant was collected 24 h later and IL-1β quantified using ELISA, with results expressed as a percentage of the unstimulated control.
In addition to IL-1β, prostaglandin E2 (PGE2) in the culture supernatants was quantified using mass spectrometry. […] The residues were then reconstituted in 100 μL of methanol and analyzed by liquid chromatography with tandem mass spectrometry (LC-MS/MS), as previously described.^13

[3] = test system: murine monocyte/macrophage-like cells; settings: dose-dependent; cited from earlier work
[4] = test system: monoiodoacetate-induced model of OA; settings: cited from earlier work
[5] = test system: IL-1β production by human THP-1 macrophages; assay: LPS-stimulated IL-1β production by THP-1 macrophages (ELISA); format: cell-based
From the text: as §1

type 2 collagenase = assay: Inhibition of collagenase-mediated cartilage degradation (pig cartilage disks, residual mass); format: biochemical
Procedure: The stability of PCG within a PLGA implant was examined by determining the ability of released PCG to inhibit collagenase-mediated cartilage degradation. Pig stifle (knee) joints were obtained from a local meat processor and full-thickness, cylindrical disks of articular cartilage (5 mm diameter) were harvested from the distal femurs. The disks were freeze-dried, weighed, and placed in Dulbecco's Modified Eagle Medium (DMEM) containing 0.0025% type 2 collagenase with and without 100 μM PCG (n=12 disks per group). Samples were incubated at 37° C. under gentle orbital shaking. At 3, 6, 9, and 12 days of incubation, three disks from each group were rinsed in distilled water, freeze-dried and weighed again, while the rest were allowed to continue incubation after adding fresh collagenase. The same experiment was repeated using implants made with 20% PLGA (50:50), NMP/BB 90/10, and 0 or 32 mg PCG per gram total implant weight (n=12 per group). Implants were formed in microcentrifuge tubes by pipetting 100 μl of the solution into distilled water. One hour later the water was replaced by the collagenase solution. Custom 3D-printed baskets were used to suspend the cartilage disks in the collagenase just above the implants. Disks were collected and weighed at the same 3-day intervals, with replacement of the collagenase solution each time. PCG concentration in the spent collagenase solution was determined by measuring absorbance at 373 nm and comparing to a standard curve generated from serial dilutions of PCG dissolved directly into DMEM. For both experiments, data are reported as residual mass of cartilage (final weight/initial weight). The overall effect of PCG was analyzed by two-way ANOVA with treatment and time as factors. Statistically significant effects of PCG at each time point were determined by independent t-test (equal variances not assumed).

[6] = test system: adjuvant-induced arthritis; settings: daily intraperitoneal doses, 50 mg/kg; cited from earlier work
[7] = 6% w/w PCG-containing diet for 37 days; cited from earlier work
collagenase = settings: in vitro; cited from earlier work
[8] = test system: RAW264.7 murine macrophages; settings: cited from earlier work
collagen type II = collagen type II (Homo sapiens, UniProt P02458); settings: non-covalent; cited from earlier work
collagen type II, sequence (P02458 182-1241 limits assumed): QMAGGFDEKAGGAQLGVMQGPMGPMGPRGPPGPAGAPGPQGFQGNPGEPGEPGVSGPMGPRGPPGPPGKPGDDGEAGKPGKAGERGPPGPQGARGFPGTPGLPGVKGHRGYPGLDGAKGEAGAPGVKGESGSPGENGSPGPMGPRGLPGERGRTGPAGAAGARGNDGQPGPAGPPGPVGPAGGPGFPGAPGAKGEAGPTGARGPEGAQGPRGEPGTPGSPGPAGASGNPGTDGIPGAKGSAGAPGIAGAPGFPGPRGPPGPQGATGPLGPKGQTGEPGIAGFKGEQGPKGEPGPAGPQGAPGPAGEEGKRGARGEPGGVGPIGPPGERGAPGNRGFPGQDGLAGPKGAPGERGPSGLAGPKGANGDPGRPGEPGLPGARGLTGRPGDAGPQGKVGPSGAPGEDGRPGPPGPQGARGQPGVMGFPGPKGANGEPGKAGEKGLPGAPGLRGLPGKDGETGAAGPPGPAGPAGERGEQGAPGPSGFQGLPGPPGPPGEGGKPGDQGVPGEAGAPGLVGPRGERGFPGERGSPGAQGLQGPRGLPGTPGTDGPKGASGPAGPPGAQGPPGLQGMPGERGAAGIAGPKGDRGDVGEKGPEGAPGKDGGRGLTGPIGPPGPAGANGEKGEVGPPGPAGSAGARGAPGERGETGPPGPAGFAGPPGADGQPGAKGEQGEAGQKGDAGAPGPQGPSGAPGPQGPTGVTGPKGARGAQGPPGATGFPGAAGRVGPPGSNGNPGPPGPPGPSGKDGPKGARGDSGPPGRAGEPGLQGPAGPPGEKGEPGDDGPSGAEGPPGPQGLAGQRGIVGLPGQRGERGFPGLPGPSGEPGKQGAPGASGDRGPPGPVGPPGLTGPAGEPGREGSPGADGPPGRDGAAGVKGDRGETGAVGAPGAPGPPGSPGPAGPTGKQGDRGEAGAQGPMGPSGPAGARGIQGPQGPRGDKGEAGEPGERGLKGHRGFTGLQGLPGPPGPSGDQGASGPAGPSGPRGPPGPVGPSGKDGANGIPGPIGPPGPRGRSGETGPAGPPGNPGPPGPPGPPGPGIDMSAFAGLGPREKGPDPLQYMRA

fibroblast synoviocytes = settings: cited from earlier work

Structure (SMILES): O=C1O[C@H]2[C@@H]3OC(=O)c4cc(O)c(O)c(O)c4-c4c(O)c(O)c5oc(=O)c6c(c(O)c(O)c7oc(=O)c4c5c76)-c4c(cc(O)c(O)c4O)C(=O)OC[C@H]3OC(O)[C@@H]2OC(=O)c2cc(O)c(O)c(O)c2-c2c1cc(O)c(O)c2O (mixture of isomers) [PCG, punicalagin]
- solubility of PCG in benzyl benzoate (BB) [1]: did not dissolve
- attenuation of LPS-stimulated production of PGE2 ([2]; PCG 500 μM): approximately 85%
- decrease in PGE2 production ([2]; PCG in the range of 4-100 μM): about 35%
- lipopolysaccharide-stimulated production of IL-6 [3]: suppressed
- lipopolysaccharide-stimulated production of nitric oxide (NO) [3]: suppressed
- lipopolysaccharide-stimulated production of prostaglandin E2 (PGE2) [3]: suppressed
- systemic toxicity (histology of major organs) ([4]; intraarticular PCG study): no evidence of systemic toxicity
- erosion of cartilage compared to saline control ([4]; semi-weekly intraarticular injections, 9.2 mM PCG solution): less overall erosion of cartilage
- LPS-stimulated IL-1β production ([5]; PCG 4 μM, added 1 h after 1 μg/ml LPS, supernatant at 24 h): return to the unstimulated control level
- LPS-stimulated IL-1β production ([5]; PCG 20 μM and above): suppression of practically all IL-1β synthesis
- cartilage mass loss (type 2 collagenase; 100 μM PCG added directly, 12 days, 0.0025% type 2 collagenase): about 55%
- collagenase-mediated degradation of cartilage (type 2 collagenase; added directly to collagenase solution or released from an ISI): significantly inhibited
- stability of PCG within PLGA ISI (type 2 collagenase; judged by collagenase inhibition of released PCG): at least 12 days
- paw edema [6]: significantly reduced paw edema
- systemic toxicity [7]: no systemic toxicity
- collagenase enzymatic activity (collagenase): inhibit its enzymatic activity
- LPS-induced production of IL-1β [8]: attenuated
- LPS-induced production of PGE2 [8]: attenuated
- binding to collagen type II (collagen type II): high affinity
- TNF-α induced expression of IL-1β (fibroblast synoviocytes): reduce
- TNF-α induced expression of IL-6 (fibroblast synoviocytes): reduce
- TNF-α induced expression of MMP-13 (fibroblast synoviocytes): reduce
